From US8017791B2, “Tri-substituted 2-benzhydryl-5-benzylamino-tetrahydro-pyran-4-ol and 6-benzhydryl-4-benzylamino-tetrahydro-pyran-3-ol analogues, and novel, 3,6-disubstituted pyran derivatives” (Wayne State University, priority 2003, dated 2011) come the findings set out here.

Data set [1] concerns the target T1, DAT (Rattus norvegicus, UniProt P23977).
T1 construct: rat striatum was the source for DAT, and cerebral cortex for SERT and NET; from tissue; P2 synaptosomal fraction for uptake
Briefly: Inhibition of [3H]DA uptake by DAT into rat striatal synaptosomes. Format: biochemical. The conditions noted are these: for IC50: read-out: DAT uptake, IC50 [3H]DA; for [3H]DA uptake/DAT binding: Table 3, ratio of IC50 values. How it is done: (§1) Biology. […] Briefly, rat striatum was the source for DAT, and cerebral cortex for SERT and NET. […] Test compounds were dissolved in dimethyl sulfoxide (DMSO) and diluted out in 10% (v/v) DMSO. […] At least five triplicate concentrations of each test compound were studied, spaced evenly around the IC50 value. For DAT uptake assays, uptake of 50 nM [^3H]DA into rat striatal synaptosomes was measured exactly as described by us previously. Briefly, rat striatal P2 membrane fractions were incubated with test compounds for 8 min followed by the additional presence of [^3H]DA for 4 min at 25?. […] Construction of inhibition curves and dissolvement of test compounds were as described above.

For data set [2], the target named is T1, DAT. Nature of the data set: Inhibition of [3H]WIN 35,428 binding to DAT. How it is done:
as §1

Structures can show the parent of a compound that is named as a salt.

Broadly, the melting point is the temperature of the solid-liquid transition. The term IC50 denotes the concentration that gives 50% inhibition.

T1 sequence (P23977 whole entry): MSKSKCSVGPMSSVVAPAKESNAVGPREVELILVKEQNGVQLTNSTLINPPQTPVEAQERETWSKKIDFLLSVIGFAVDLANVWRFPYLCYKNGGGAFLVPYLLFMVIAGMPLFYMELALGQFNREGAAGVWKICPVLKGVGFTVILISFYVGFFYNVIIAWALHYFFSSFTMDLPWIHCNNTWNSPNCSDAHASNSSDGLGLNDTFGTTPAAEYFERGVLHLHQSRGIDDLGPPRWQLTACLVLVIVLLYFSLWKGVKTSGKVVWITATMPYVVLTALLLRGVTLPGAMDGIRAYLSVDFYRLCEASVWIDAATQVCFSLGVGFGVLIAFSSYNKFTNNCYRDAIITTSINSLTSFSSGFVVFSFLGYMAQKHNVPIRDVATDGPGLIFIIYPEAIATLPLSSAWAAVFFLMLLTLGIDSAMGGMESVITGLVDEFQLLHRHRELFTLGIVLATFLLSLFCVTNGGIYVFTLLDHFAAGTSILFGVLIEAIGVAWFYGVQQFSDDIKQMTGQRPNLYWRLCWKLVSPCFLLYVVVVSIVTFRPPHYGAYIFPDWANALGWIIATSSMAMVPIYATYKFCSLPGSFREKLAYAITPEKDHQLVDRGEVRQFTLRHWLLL

`Oc1ccc(CN[C@H]2CC[C@@H](C(c3ccccc3)c3ccccc3)OC2)cc1` (as salt: oxalate) [(−)-37a, cis-(3S,6S)-(6-benzhydryl-tetrahydropyran-3-yl)-(4-hydroxy-benzyl)-amine] yielded a melting point of 136 to 138 °C.
The compound `Fc1ccc(CN[C@@H]2CCO[C@@H](C(c3ccccc3)c3ccccc3)C2)cc1` (relative stereo) (as salt: oxalate) [Compound 7b, trans-(2-benzhydryl-tetrahydropyran-4-yl)-(4-fluoro-benzyl)-amine] showed a melting point of 185 to 187 °C.
For the compound `COc1ccc(CN[C@H]2CC[C@@H](C(c3ccccc3)c3ccccc3)OC2)cc1` (relative stereo) [Compound 16e, Cis-(6-benzhydryl-tetrahydropyran-3-yl)-(4-methoxy-benzyl)-amine], the IC50 in data set [1] (Table 2, average ± SEM) amounted to 59.5 ± 11.6 nM; in data set [2] (read-out: IC50 at the DAT), 84 nM. Further, the “[3H]DA uptake/DAT binding” value in data set [1] is listed as 0.71.
For `O[C@@H]1C[C@@H](C(c2ccccc2)c2ccccc2)OC[C@H]1NCc1ccc(F)cc1` (as salt: oxalate) [(−)-29b, (2S,4R,5R)-2-benzhydryl-5-(4-fluoro-benzylamino)-tetrahydro-pyran-4-ol], the melting point was in the range of 222 to 223 °C.
On to `COc1ccc(CN[C@@H]2CO[C@H](C(c3ccccc3)c3ccccc3)C[C@H]2O)cc1` (as salt: oxalate) [(−)-29a, (2S,4R,5R)-2-benzhydryl-5-(4-methoxy-benzylamino)-tetrahydropyran-4-ol], for which the melting point lay within 230 to 232 °C.
Still for that read-out and setting: then `Fc1ccc(CN[C@H]2CC[C@@H](C(c3ccccc3)c3ccccc3)OC2)cc1` (relative stereo) (as salt: oxalate) [Compound 16b, Cis-(6-benzhydryl-tetrahydropyran-3-yl)-(4-fluoro-benzyl)-amine], with 229 to 230 °C.
As for `Fc1ccc(CCN[C@H]2CC[C@@H](C(c3ccccc3)c3ccccc3)OC2)cc1` (relative stereo) (as salt: oxalate) [Compound 16p, Cis-(6-benzhydryl-tetrahydropyran-3-yl)-[2-(4-fluoro-phenyl)-ethyl]-amine], the melting point lay within 240 to 242 °C.
The compound `Oc1ccc(CN[C@@H]2CC[C@H](C(c3ccccc3)c3ccccc3)OC2)cc1` (as salt: oxalate) [(+)-37a, cis-(3R,6R)-(6-benzhydryl-tetrahydropyran-3-yl)-(4-hydroxy-benzyl)-amine] gave a melting point of 136 to 138 °C.
The compound `COc1ccc(CN[C@@H]2CO[C@H](C(c3ccccc3)c3ccccc3)C[C@H]2O)c(OC)c1` (as salt: oxalate) [(−)-29e, (2S,4R,5R)-2-benzhydryl-5-(2,4-dimethoxy-benzylamino)-tetrahydropyran-4-ol] yielded a melting point of 208 to 210 °C.
The compound `Fc1ccc(CN[C@H]2CC[C@@H](C(c3ccccc3)c3ccccc3)OC2)cc1F` (relative stereo) (as salt: oxalate) [Compound 16j, Cis-(6-benzhydryl-tetrahydropyran-3-yl)-(3,4-difluoro-benzyl)-amine] displayed a melting point of 234 to 235 °C.
As for `Brc1ccc(CN[C@H]2CC[C@@H](C(c3ccccc3)c3ccccc3)OC2)cc1` (relative stereo) (as salt: oxalate) [Compound 16l, Cis-(6-benzhydryl-tetrahydropyran-3-yl)-(4-bromo-benzyl)-amine], the melting point was in the range of 250 to 252 °C.
Compound `Fc1ccc(CN[C@H]2CCO[C@@H](C(c3ccccc3)c3ccccc3)C2)cc1` (relative stereo) (as salt: oxalate) [Compound 7a, cis-(2-benzhydryl-tetrahydropyran 4-yl)-(4-fluorobenzyl)-amine] showed a melting point of 177 to 181 °C.
`Ic1ccc(CN[C@H]2CC[C@@H](C(c3ccccc3)c3ccccc3)OC2)cc1` (relative stereo) (as salt: oxalate) [Compound 16m, Cis-(6-benzhydryl-tetrahydropyran-3-yl)-(4-iodo-benzyl)-amine] came in with a melting point of 243 to 244 °C.
Take `N[C@H]1CC[C@@H](C(c2ccccc2)c2ccccc2)OC1` (relative stereo) [Compound 15, Cis-(6-benzhydryl-tetrahydropyran-3-yl)-amine]: the IC50 in data set [1] (Table 2, average ± SEM) was 251 ± 31 nM; in data set [2] (Table 2, average ± SEM of three to eight experiments, read-out: DAT binding, IC50, [3H]Win 35,428), 777 ± 41 nM. The “[3H]DA uptake/DAT binding” value in data set [1] is listed as 0.32. In addition, the “activity at DAT, in words” value in data set [2] is “little or no activity at the DAT”.
`c1ccc(CN[C@H]2CC[C@@H](C(c3ccccc3)c3ccccc3)OC2)cc1` (relative stereo) (as salt: oxalate) [Compound 16k, Cis-(6-benzhydryl-tetrahydropyran-3-yl)-benzyl-amine] registered a melting point of 208 to 210 °C.
`O[C@H]1C[C@H](C(c2ccccc2)c2ccccc2)OC[C@@H]1NCc1ccccc1` (as salt: oxalate) [(+)-29d, (2R,4S,5S)-2-benzhydryl-5-benzylamino-tetrahydro-pyran-4-ol] yielded a melting point of 249 to 251 °C.
On to `O[C@H]1C[C@H](C(c2ccccc2)c2ccccc2)OC[C@@H]1NCc1ccc2[nH]ccc2c1` [(+)-32b, (2R,4S,5S)-2-benzhydryl-5-[(1H-indol-5-ylmethyl)-amino]-tetrahydropyran-4-ol], for which the IC50 is 247 ± 21 nM in data set [1] (Table 4, rat brain) and 494 ± 96 nM in data set [2] (Table 4, rat brain, read-out: DAT binding, IC50, [3H]Win 35,428).
In the case of `c1ccc(C(c2ccccc2)C2CCC(NCc3c[nH]c4ccccc34)CO2)cc1` (stereo not drawn) (as salt: oxalate) [Compound 16f, Cis-(6-benzhydryl-tetrahydropyran-3-yl)-(3-indole-methyl)-amine], the melting point lay in the range of 177 to 179 °C.
On to `O[C@@H]1C[C@@H](C(c2ccccc2)c2ccccc2)OC[C@H]1NCCc1ccc(F)cc1` (as salt: oxalate) [(−)-29c, (2S,4R,5R)-2-benzhydryl-5-[2-(4-fluoro-phenyl)-ethylamino]-tetrahydropyran-4-ol], for which the melting point was in the range of 205 to 207 °C.
`COc1ccc(CN[C@@H]2C[C@@H](C(c3ccccc3)c3ccccc3)OC[C@@H]2O)cc1` (as salt: oxalate) [(−)-29g, (3R,4R,6S)-6-benzhydryl-4-(4-methoxy-benzylamino)-tetrahydro-pyran-3-ol] had a melting point of 234 to 235 °C.
`COc1cc(CN[C@@H]2CO[C@H](C(c3ccccc3)c3ccccc3)C[C@H]2O)cc(OC)c1` (as salt: oxalate) [(−)-29f, (2S,4R,5R)-2-benzhydryl-5-(3,5-dimethoxy-benzylamino)-tetrahydropyran-4-ol] returned a melting point of 245 to 247 °C.
Compound `Clc1ccc(CN[C@H]2CC[C@@H](C(c3ccccc3)c3ccccc3)OC2)cc1Cl` (relative stereo) (as salt: oxalate) [Compound 16i, Cis-(6-benzhydryl-tetrahydropyran-3-yl)-(3,4-dichloro-benzyl)-amine] registered a melting point of 251 to 252 °C.
Same read-out and setting: then `O[C@H]1C[C@H](C(c2ccccc2)c2ccccc2)OC[C@@H]1NCCc1ccc(F)cc1` (as salt: oxalate) [(+)-29c, (2R,4S,5S)-2-benzhydryl-5-[2-(4-fluoro-phenyl)-ethylamino]-tetrahydropyran-4-ol], with 203 to 205 °C; and `COc1ccc(CN[C@H]2CC[C@@H](C(c3ccccc3)c3ccccc3)OC2)cc1` (relative stereo) (as salt: oxalate) [Compound 16e, Cis-(6-benzhydryl-tetrahydropyran-3-yl)-(4-methoxy-benzyl)-amine], with 215 to 217 °C.
